How the values were obtained:
Experiment in all cases: relative viability (nuclei count vs DMSO), 5 days (fraction); higher = more cells survive
Shikonin + Phenformin = compound: CC(C)=CC[C@@H](O)C1=CC(=O)c2c(O)ccc(O)c2C1=O [Shikonin] + N=C(N)NC(=N)NCCc1ccccc1 [Phenformin] (partner 250 µM)
How it was run: (§1)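 Lung cancer cell lines in 1536-well plates got either a single drug or a fixed anchor-drug dose together with five library-drug doses (not always all listed) in √10 steps, by pin tool, on the day after seeding. Nuclei were counted after 5 days, and relative viability is the treated-to-vehicle ratio of nuclei counts. Values are medians of duplicate plates.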

Shikonin + Decitabine = compound: CC(C)=CC[C@@H](O)C1=CC(=O)c2c(O)ccc(O)c2C1=O [Shikonin] + Nc1ncn([C@H]2C[C@H](O)[C@@H](CO)O2)c(=O)n1 [Decitabine] (partner 2 µM)
How it was run: as §1

Shikonin + Pemetrexed = compound: CC(C)=CC[C@@H](O)C1=CC(=O)c2c(O)ccc(O)c2C1=O [Shikonin] + Nc1nc2[nH]cc(CCc3ccc(C(=O)N[C@@H](CCC(=O)O)C(=O)O)cc3)c2c(=O)[nH]1 [Pemetrexed] (partner 0.2 µM)
How it was run: as §1

[1] = compound: CC(C)N(CCCNC(=O)Nc1ccc(C(C)(C)C)cc1)C[C@H]1O[C@@H](n2ccc3c(N)ncnc32)[C@H](O)[C@@H]1O + C[C@]1(O)C[C@@H](c2nc(-c3ccc4ccc(-c5ccccc5)nc4c3)c3c(N)nccn32)C1 [Linsitinib] (partner 1 µM)
How it was run: as §1

UMC-11
relative viability (Shikonin + Phenformin; first compound 0.01 µM): 0.337 | relative viability (Shikonin + Phenformin; first compound 0.1 µM): 0.329 | relative viability (Shikonin + Phenformin; first compound 0.3162 µM): 0.348 | relative viability (Shikonin + Phenformin; first compound 1 µM): 0.331 | relative viability (Shikonin + Decitabine; first compound 0.01 µM): 0.576 | relative viability (Shikonin + Decitabine; first compound 0.1 µM): 0.614 | relative viability (Shikonin + Decitabine; first compound 0.3162 µM): 0.665 | relative viability (Shikonin + Decitabine; first compound 1 µM): 0.74 | relative viability (Shikonin + Pemetrexed; first compound 0.01 µM): 0.813 | relative viability (Shikonin + Pemetrexed; first compound 0.1 µM): 0.942 | relative viability (Shikonin + Pemetrexed; first compound 0.3162 µM): 0.836 | relative viability (Shikonin + Pemetrexed; first compound 1 µM): 0.793 | relative viability ([1]; first compound 0.08 µM): 0.953 | relative viability ([1]; first compound 0.253 µM): 0.96 | relative viability ([1]; first compound 0.8 µM): 1.07 | relative viability ([1]; first compound 2.53 µM): 1.02 | relative viability ([1]; first compound 8 µM): 0.889

From the supplement of paper PMC10307832
